Measured values published in paper PMC7139731, “Synthesis, Anticancer Evaluation and Structure-Activity Analysis of Novel (E)- 5-(2-Arylvinyl)-1,3,4-oxadiazol-2-yl)benzenesulfonamides” (International Journal of Molecular Sciences, 2020).
Where “and” joins values, the source holds several entries; their conditions need not be identical. Equal entries are not always repeated.

Experiments:
[1] = tested on: HeLa cells (cervical cancer); experiment: MTT cell viability assay, 72 h, HeLa; type: cell-based, human; conditions: for IC50: MTT assay, 72 h incubation, mean ± SD
Procedure: (§1) Compounds 7–36 and 47–54 were tested regarding their effect on growth of three human cancer cell lines: colon cancer HCT-116, breast cancer MCF-7 and cervical cancer HeLa, as well as on noncancerous keratinocyte cell line HaCaT. Cell viability was measured with MTT assay after 72 h of incubation with tested compound in five concentration 1–100 μM. The MTT test enables us to quantify the living cells by measuring the activity of mitochondrial enzymes, enables reducing tetrazolium dye MTT to purple formazan. In this manner, IC50—molar concentration [µM] that inhibits 50% net cell growth—was determined (Table 1 and Table 2).
(§2) All chemicals, if not stated otherwise, were obtained from Sigma-Aldrich (St. Louis, MO, USA). The MCF-7, HeLa and HaCaT cell lines were purchased from Cell Lines Services (Eppelheim, Germany), the HCT-116 cell line were obtained from ATCC (ATCC-No: CCL-247). Cells were cultured in Dulbecco’s modified Eagle’s medium (DMEM) supplemented with 10% fetal bovine serum, 2 mM glutamine, 100 units/mL penicillin, and 100 μg/mL streptomycin. Cultures were maintained in a humidified atmosphere with 5% CO2 at 37 °C in an incubator (HeraCell, Heraeus, Langenselbold, Germany). Cell viability was determined using the MTT [3-(4,5-dimethylthiazol-2-yl)-2,5-diphenyl-tetrazolium bromide] assay. Stock solutions of the studied compounds were obtained in 100% DMSO. […] Cells were seeded in 96-well plates at a density of 5 × 10^3 cells/well and treated for 72 h with the examined compounds in the concentration range 1–100 μM (1, 10, 25, 50 and 100 μM). Following treatment, MTT (0.5 mg/mL) was added to the medium and cells were further incubated for 2 h at 37 °C. Cells were lysed with DMSO and the absorbance of the formazan solution was measured at 550 nm with a plate reader Victor 1420 multilabel counter, (PerkinElmer, Inc. Waltham, MA USA). […] The experiment was performed in triplicate. Values are expressed as the mean ± SD of at least three independent experiments

[2] = tested on: HCT-116 cells (colon cancer); experiment: MTT cell viability assay, 72 h, HCT-116; type: cell-based, human; conditions: for IC50: MTT assay, 72 h incubation, mean ± SD
Procedure: as §1, §2

[3] = tested on: MCF-7 cells (breast cancer); experiment: MTT cell viability assay, 72 h, MCF-7; type: cell-based, human; conditions: for IC50: MTT assay, 72 h incubation, mean ± SD
Procedure: as §1, §2

[4] = tested on: HaCaT noncancerous keratinocyte cell line; experiment: MTT cell viability assay, 72 h, HaCaT; type: cell-based; conditions: for IC50: Homo sapiens, HaCaT, MTT assay, 72 h incubation, mean ± SD; for activity against HaCaT compared with cancer lines: in words
Procedure: as §1, §2

Compound	IC50 ([1]; Homo sapiens, HeLa, 72 h)	IC50 ([2]; Homo sapiens, HCT-116, 72 h)	IC50 ([3]; Homo sapiens, MCF7, 72 h)	IC50 [4]	further results
NS(=O)(=O)c1cc(-c2nnc(/C=C/c3ccccc3)o2)c(Cl)cc1Cl [Compound 7, (E)-2,4-Dichloro-5-(5-styryl-1,3,4-oxadiazol-2-yl)benzenesulfonamide]	455 ± 14 µM	86 ± 3 µM	165 ± 5 µM	–	–
NS(=O)(=O)c1cc(-c2nnc(/C=C/c3cccc(Cl)c3)o2)c(Cl)cc1Cl [Compound 9, (E)-2,4-Dichloro-5-(5-(3-chlorostyryl)-1,3,4-oxadiazol-2-yl)benzenesulfonamide]	19 ± 1 µM	24 ± 1 µM	150 ± 10 µM	98 ± 2 µM	–
NS(=O)(=O)c1cc(-c2nnc(/C=C/c3cccc(Cl)c3)o2)c(Cl)cc1SCc1ccccc1 [Compound 10]	–	–	–	–	activity against HaCaT compared with cancer lines [4]: at the same level as against cancer lines
NS(=O)(=O)c1cc(-c2nnc(/C=C/c3ccc(Cl)cc3)o2)c(Cl)cc1Cl [Compound 11, (E)-2,4-Dichloro-5-(5-(4-chlorostyryl)-1,3,4-oxadiazol-2-yl)benzenesulfonamide]	42 ± 1 µM	22 ± 1 µM	28 ± 1 µM	51 ± 3 µM	–
NS(=O)(=O)c1cc(-c2nnc(/C=C/c3c(Cl)cccc3Cl)o2)c(Cl)cc1Cl [Compound 13, (E)-2,4-Dichloro-5-(5-(2,6-dichlorostyryl)-1,3,4-oxadiazol-2-yl)benzenesulfonamide]	25 ± 1 µM	16 ± 1 µM	92 ± 5 µM	95 ± 2 µM	–
NS(=O)(=O)c1cc(-c2nnc(/C=C/c3ccc(Br)cc3)o2)c(Cl)cc1Cl [Compound 15, (E)-5-(5-(4-Bromostyryl)-1,3,4-oxadiazol-2-yl)-2,4-dichlorobenzenesulfonamide]	34 ± 2 µM	34 ± 1 µM	41 ± 1 µM	55 ± 2 µM	–
NS(=O)(=O)c1cc(-c2nnc(/C=C/c3ccc(O)cc3)o2)c(Cl)cc1Cl [Compound 17, (E)-2,4-Dichloro-5-(5-(4-hydroxystyryl)-1,3,4-oxadiazol-2-yl)benzenesulfonamide]	99 ± 1 µM	49 ± 1 µM	73 ± 3 µM	100 ± 5 µM	–
NS(=O)(=O)c1cc(-c2nnc(/C=C/c3ccc(O)cc3)o2)c(Cl)cc1SCc1ccccc1 [Compound 18, (E)-2-(Benzylthio)-4-chloro-5-(5-(4-hydroxystyryl)-1,3,4-oxadiazol-2-yl)benzenesulfonamide]	18.2 ± 0.5 µM	18 ± 1 µM	59 ± 3 µM	25.6 ± 0.5 µM	activity against HaCaT compared with cancer lines [4]: at the same level as against cancer lines
N#Cc1ccc(/C=C/c2nnc(-c3cc(S(N)(=O)=O)c(Cl)cc3Cl)o2)cc1 [Compound 19, (E)-2,4-Dichloro-5-(5-(4-cyanostyryl)-1,3,4-oxadiazol-2-yl)benzenesulfonamide]	117 ± 6 µM	13.7 ± 0.5 µM	10 ± 0.3 µM	102 ± 3 µM	–
N#Cc1ccc(/C=C/c2nnc(-c3cc(S(N)(=O)=O)c(SCc4ccccc4)cc3Cl)o2)cc1 [Compound 20, (E)-2-(Benzylthio)-4-chloro-5-(5-(4-cyanostyryl)-1,3,4-oxadiazol-2-yl)benzenesulfonamide]	9 to 12 µM	9 to 12 µM	9 to 12 µM	20 ± 1 µM	IC50 [1]: 12.2 ± 0.5 µM; IC50 [2]: 10.3 ± 0.2 µM; IC50 [3]: 8.9 ± 0.5 µM
NS(=O)(=O)c1cc(-c2nnc(/C=C/c3ccc(C(F)(F)F)cc3)o2)c(Cl)cc1Cl [Compound 21, (E)-2,4-Dichloro-5-(5-(4-(trifluoromethyl)styryl)-1,3,4-oxadiazol-2-yl)benzenesulfonamide]	90 ± 2 µM	18 ± 1 µM	75 ± 2 µM	95 ± 4 µM	–
NS(=O)(=O)c1cc(-c2nnc(/C=C/c3ccc(C(F)(F)F)cc3)o2)c(Cl)cc1SCc1ccccc1 [Compound 22, (E)-2-(Benzylthio)-4-chloro-5-(5-(4-(trifluoromethyl)styryl)-1,3,4-oxadiazol-2-yl)benzenesulfonamide]	33.4 ± 0.5 µM	15.2 ± 0.1 µM	30 ± 1 µM	33 ± 1 µM	–
NS(=O)(=O)c1cc(-c2nnc(/C=C/c3ccncc3)o2)c(Cl)cc1Cl [Compound 23, (E)-2,4-Dichloro-5-(5-(2-(pyridin-4-yl)vinyl)-1,3,4-oxadiazol-2-yl)benzenesulfonamide]	740 ± 37 µM	255 ± 13 µM	640 ± 13 µM	–	–
NS(=O)(=O)c1cc(-c2nnc(/C=C/c3ccncc3)o2)c(Cl)cc1SCc1ccccc1 [Compound 24, (E)-2-(Benzylthio)-4-chloro-5-(5-(2-(pyridin-4-yl)vinyl)-1,3,4-oxadiazol-2-yl)benzenesulfonamide]	135 ± 8 µM	31 ± 1 µM	225 ± 11 µM	150 ± 8 µM	–
NS(=O)(=O)c1cc(-c2nnc(/C=C/c3cccnc3)o2)c(Cl)cc1Cl [Compound 25, (E)-2,4-Dichloro-5-(5-(2-(pyridin-3-yl)vinyl)-1,3,4-oxadiazol-2-yl)benzenesulfonamide]	570 ± 17 µM	220 ± 11 µM	760 ± 24 µM	–	–
NS(=O)(=O)c1cc(-c2nnc(/C=C/c3cccnc3)o2)c(Cl)cc1SCc1ccccc1 [Compound 26, (E)-2-(Benzylthio)-4-chloro-5-(5-(2-(pyridin-3-yl)vinyl)-1,3,4-oxadiazol-2-yl)benzenesulfonamide]	135 ± 4 µM	85 ± 5 µM	350 ± 17 µM	–	–
NS(=O)(=O)c1cc(-c2nnc(/C=C/c3ccccn3)o2)c(Cl)cc1Cl [Compound 27, (E)-2,4-Dichloro-5-(5-(2-(pyridin-2-yl)vinyl)-1,3,4-oxadiazol-2-yl)benzenesulfonamide]	170 ± 5 µM	117 ± 4 µM	110 ± 2 µM	–	–
NS(=O)(=O)c1cc(-c2nnc(/C=C/c3cccs3)o2)c(Cl)cc1Cl [Compound 29, (E)-2,4-Dichloro-5-(5-(2-(thiophen-2-yl)vinyl)-1,3,4-oxadiazol-2-yl)benzenesulfonamide]	245 ± 12 µM	108 ± 4 µM	175 ± 12 µM	–	–
NS(=O)(=O)c1cc(-c2nnc(/C=C/c3cccs3)o2)c(Cl)cc1SCc1ccccc1 [Compound 30, (E)-2-(Benzylthio)-4-chloro-5-(5-(2-(thiophen-2-yl)vinyl)-1,3,4-oxadiazol-2-yl)benzenesulfonamide]	87 ± 3 µM	32 ± 2 µM	66 ± 2 µM	85 ± 4 µM	–
NS(=O)(=O)c1cc(-c2nnc(/C=C/c3ccc([N+](=O)[O-])s3)o2)c(Cl)cc1Cl [Compound 31, (E)-2,4-Dichloro-5-(5-(2-(5-nitrothiophen-2-yl)vinyl)-1,3,4-oxadiazol-2-yl)benzenesulfonamide]	–	0.5 to 4.5 µM	–	8.1 ± 0.5 µM	increase of activity towards HeLa on addition of nitro group (31 vs 29) ([1]; compared with compound 29): 54 times; IC50 [2]: 0.5 µM and 0.52 µM; increase of activity towards HCT-116 on addition of nitro group (31 vs 29) ([2]; compared with compound 29): over 200 times; increase of activity towards MCF-7 on addition of nitro group (31 vs 29) ([3]; compared with compound 29): 43 times
NS(=O)(=O)c1ccc(-c2nnc(/C=C/c3ccccc3)o2)cc1 [Compound 47, (E)-4-(5-Styryl-1,3,4-oxadiazol-2-yl)benzenesulfonamide]	130 ± 7 µM	185 ± 11 µM	168 ± 8 µM	–	–
NS(=O)(=O)c1ccc(-c2nnc(/C=C/c3ccc(C(F)(F)F)cc3)o2)cc1 [Compound 50, (E)-4-(5-(4-(Trifluoromethyl)styryl)-1,3,4-oxadiazol-2-yl)benzenesulfonamide]	520 ± 25 µM	155 ± 7 µM	280 ± 15 µM	–	–
Clc1ccc(-c2nnc(/C=C/c3ccccc3)o2)c(Cl)c1 [Compound 51, (E)-2-(2,4-Dichlorophenyl)-5-styryl-1,3,4-oxadiazole]	190 ± 10 µM	92 ± 2 µM	125 ± 6 µM	–	–
Clc1ccc(/C=C/c2nnc(-c3ccc(Cl)cc3Cl)o2)cc1 [Compound 52, (E)-2-(4-Chlorostyryl)-5-(2,4-dichlorophenyl)-1,3,4-oxadiazole]	215 ± 6 µM	64 ± 3 µM	110 ± 6 µM	–	–
N#Cc1ccc(/C=C/c2nnc(-c3ccc(Cl)cc3Cl)o2)cc1 [Compound 53, (E)-4-(2-(5-(2,4-Dichlorophenyl)-1,3,4-oxadiazol-2-yl)vinyl)benzonitrile]	225 ± 11 µM	106 ± 3 µM	142 ± 6 µM	–	–
FC(F)(F)c1ccc(/C=C/c2nnc(-c3ccc(Cl)cc3Cl)o2)cc1 [Compound 54, (E)-2-(2,4-Dichlorophenyl)-5-(4-(trifluoromethyl)styryl)-1,3,4-oxadiazole]	104 ± 3 µM	98 ± 1 µM	102 ± 5 µM	–	–
